According to ChEMBL document CHEMBL1201861, “Genomics of Drug Sensitity in Cancer screening data, Wellcome Trust Sanger Institute”:

How the values were obtained:
Assay in all cases: cells
Assay type in all cases: functional, cell-based, Homo sapiens
[1] = tested on: COR-L88;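 note: growth inhibition of COR-L88 cells, read out with a cell viability assay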
Description: SANGER: Inhibition of human COR-L88 cell growth in a cell viability assay.

[2] = tested on: CP66-MEL;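 note: growth inhibition of CP66-MEL cells determined in a cell viability assay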
Description: SANGER: Inhibition of human CP66-MEL cell growth in a cell viability assay.

[3] = tested on: CTV-1;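 note: growth inhibition of the cell line, read out with a cell viability assay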
Description: SANGER: Inhibition of human CTV-1 cell growth in a cell viability assay.

[4] = tested on: D-247MG
Description: SANGER: Inhibition of human D-247MG cell growth in a cell viability assay.

[5] = tested on: DMS-79;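 note: growth inhibition measured with a cell viability assay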
Description: SANGER: Inhibition of human DMS-79 cell growth in a cell viability assay.

[6] = tested on: DOHH-2;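 note: growth inhibition of human DOHH-2 cells, read out with a cell viability assay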
Description: SANGER: Inhibition of human DOHH-2 cell growth in a cell viability assay.

[7] = tested on: EKVX;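 note: growth inhibition of human EKVX cells, read out with a cell viability assay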
Description: SANGER: Inhibition of human EKVX cell growth in a cell viability assay.

[8] = tested on: ES1;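 note: growth inhibition of ES1 cells, read out with a cell viability assay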
Description: SANGER: Inhibition of human ES1 cell growth in a cell viability assay.

[9] = tested on: EW-24; conditions: Homo sapiens, EW-24;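 note: human EW-24 cancer cell line, growth inhibition read out via a cell viability assay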
Description: SANGER: Inhibition of human EW-24 cell growth in a cell viability assay.

[10] = tested on: GB-1;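 note: growth of GB-1 cells judged by a viability assay, IC50 marks the concentration inhibiting growth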
Description: SANGER: Inhibition of human GB-1 cell growth in a cell viability assay.

[11] = tested on: HCC1187;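 note: growth inhibition of HCC1187 cells, read out with a cell viability assay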
Description: SANGER: Inhibition of human HCC1187 cell growth in a cell viability assay.

[12] = tested on: HD-MY-Z;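 note: growth inhibition of HD-MY-Z cells, read out with a cell viability assay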
Description: SANGER: Inhibition of human HD-MY-Z cell growth in a cell viability assay.

[13] = tested on: HEL;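 note: growth inhibition of HEL cells, read out with a cell viability assay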
Description: SANGER: Inhibition of human HEL cell growth in a cell viability assay.

[14] = tested on: HOP-62;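 note: cell growth inhibition determined with a viability assay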
Description: SANGER: Inhibition of human HOP-62 cell growth in a cell viability assay.

[15] = tested on: HT-144
Description: SANGER: Inhibition of human HT-144 cell growth in a cell viability assay.

[16] = tested on: IA-LM;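 note: cell viability assay measuring growth inhibition of human IA-LM cells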
Description: SANGER: Inhibition of human IA-LM cell growth in a cell viability assay.

[17] = tested on: IST-MEL1;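 note: growth inhibition of the cell line, read out with a cell viability assay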
Description: SANGER: Inhibition of human IST-MEL1 cell growth in a cell viability assay.

[18] = tested on: KNS-81-FD;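 note: growth inhibition of KNS-81-FD cells, read out with a cell viability assay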
Description: SANGER: Inhibition of human KNS-81-FD cell growth in a cell viability assay.

[19] = tested on: L-363
Description: SANGER: Inhibition of human L-363 cell growth in a cell viability assay.

[20] = tested on: LU-139
Description: SANGER: Inhibition of human LU-139 cell growth in a cell viability assay.

[21] = tested on: MS-1;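 note: growth inhibition of MS-1 cells, read out by cell viability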
Description: SANGER: Inhibition of human MS-1 cell growth in a cell viability assay.

[22] = tested on: MSTO-211H
Description: SANGER: Inhibition of human MSTO-211H cell growth in a cell viability assay.

[23] = tested on: NB12;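 note: growth inhibition of human NB12 cells, read out by a cell viability assay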
Description: SANGER: Inhibition of human NB12 cell growth in a cell viability assay.

[24] = tested on: NB5;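 note: growth inhibition of NB5 cells, read out as cell viability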
Description: SANGER: Inhibition of human NB5 cell growth in a cell viability assay.

[25] = tested on: NB6;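 note: growth inhibition of NB6 cells, read out by a cell viability assay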
Description: SANGER: Inhibition of human NB6 cell growth in a cell viability assay.

[26] = tested on: NB69;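 note: growth inhibition of NB69 cells, determined by a cell viability assay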
Description: SANGER: Inhibition of human NB69 cell growth in a cell viability assay.

[27] = tested on: NCI-H1092;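 note: cell growth inhibition measured with a cell viability assay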
Description: SANGER: Inhibition of human NCI-H1092 cell growth in a cell viability assay.

[28] = tested on: NCI-H1304;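 note: growth inhibition of the cancer cell line, measured in a cell viability assay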
Description: SANGER: Inhibition of human NCI-H1304 cell growth in a cell viability assay.

[29] = tested on: NCI-H209;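 note: growth inhibition of human NCI-H209 cells, measured by a cell viability assay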
Description: SANGER: Inhibition of human NCI-H209 cell growth in a cell viability assay.

[30] = tested on: NCI-H526;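 note: growth inhibition of the human NCI-H526 cell line, measured by a cell viability assay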
Description: SANGER: Inhibition of human NCI-H526 cell growth in a cell viability assay.

[31] = tested on: NCI-H69;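 note: growth inhibition of the cell line, read out with a cell viability assay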
Description: SANGER: Inhibition of human NCI-H69 cell growth in a cell viability assay.

[32] = tested on: NCI-H747;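 note: growth inhibition of human NCI-H747 cells, read out by a cell viability assay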
Description: SANGER: Inhibition of human NCI-H747 cell growth in a cell viability assay.

[33] = tested on: SNU-5;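 note: cell viability readout used to measure growth inhibition in human NCI-SNU-5 cells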
Description: SANGER: Inhibition of human NCI-SNU-5 cell growth in a cell viability assay.

[34] = tested on: NTERA-2-cl-D1;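 note: inhibition of cell growth, measured with a cell viability assay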
Description: SANGER: Inhibition of human NTERA-S-cl-D1 cell growth in a cell viability assay.

[35] = tested on: OCUB-M;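 note: growth inhibition of the cancer cell line, read out through a cell viability assay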
Description: SANGER: Inhibition of human OCUB-M cell growth in a cell viability assay.

[36] = tested on: SCC-15;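 note: growth inhibition of SCC-15 cells, read out with a cell viability assay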
Description: SANGER: Inhibition of human SCC-15 cell growth in a cell viability assay.

[37] = tested on: SK-N-DZ;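 note: growth inhibition of the cancer cell line, read out through a viability assay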
Description: SANGER: Inhibition of human SK-N-DZ cell growth in a cell viability assay.

[38] = tested on: SK-N-FI;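 note: cell viability assay measuring growth inhibition of human SK-N-FI cells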
Description: SANGER: Inhibition of human SK-N-FI cell growth in a cell viability assay.

[39] = tested on: SK-UT-1;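 note: growth inhibition of SK-UT-1 cells, measured by a cell viability assay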
Description: SANGER: Inhibition of human SK-UT-1 cell growth in a cell viability assay.

[40] = tested on: SW 962;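 note: growth inhibition of human SW962 cells, read out by a cell viability assay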
Description: SANGER: Inhibition of human SW962 cell growth in a cell viability assay.

[41] = tested on: A3-KAW;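 note: growth inhibition of human A3-KAW cells, read out with a cell viability assay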
Description: SANGER: Inhibition of human A3-KAW cell growth in a cell viability assay.

[42] = tested on: AM-38;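 note: growth inhibition of AM-38 cells of human origin, read out by a cell viability assay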
Description: SANGER: Inhibition of human AM-38 cell growth in a cell viability assay.

[43] = tested on: ATN-1;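 note: growth inhibition of human ATN-1 cells, read out with a cell viability assay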
Description: SANGER: Inhibition of human ATN-1 cell growth in a cell viability assay.

[44] = tested on: C8166;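 note: growth inhibition of human C8166 cells measured by a cell viability assay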
Description: SANGER: Inhibition of human C8166 cell growth in a cell viability assay.

[45] = tested on: TGBC1TKB;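 note: growth inhibition of TGBC1TKB cells, read out by a cell viability assay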
Description: SANGER: Inhibition of human TGBC1TKB cell growth in a cell viability assay.

[46] = tested on: UACC-257
Description: SANGER: Inhibition of human UACC-257 cell growth in a cell viability assay.

[47] = tested on: VA-ES-BJ;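 note: growth inhibition of the VA-ES-BJ cell line, read out by a cell viability assay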
Description: SANGER: Inhibition of human VA-ES-BJ cell growth in a cell viability assay.

CO[C@H]1C[C@@H]2CC[C@@H](C)[C@@](O)(O2)C(=O)C(=O)N2CCCC[C@H]2C(=O)O[C@H]([C@H](C)C[C@@H]2CC[C@@H](OC(=O)C(C)(CO)CO)[C@H](OC)C2)CC(=O)[C@H](C)/C=C(\C)[C@@H](O)[C@@H](OC)C(=O)[C@H](C)C[C@H](C)/C=C/C=C/C=C/1C [TEMSIROLIMUS]
IC50 ([1]; Homo sapiens, COR-L88): > 0.2 µM | IC50 ([2]; Homo sapiens, CP66-MEL): > 0.2 µM | IC50 ([3]; Homo sapiens, CTV-1): > 0.2 µM | IC50 ([4]; Homo sapiens, D-247MG): > 0.2 µM | IC50 ([5]; Homo sapiens, DMS-79): > 0.2 µM | IC50 ([6]; Homo sapiens, DOHH-2): 0.0168 µM | IC50 ([7]; Homo sapiens, EKVX): > 0.2 µM | IC50 ([8]; Homo sapiens, ES1): 24.5 nM | IC50 [9]: > 0.2 µM | IC50 ([10]; Homo sapiens, GB-1): > 200 nM | IC50 ([11]; Homo sapiens, HCC1187): > 0.2 µM | IC50 ([12]; Homo sapiens, HD-MY-Z): 0.0216 µM | IC50 ([13]; Homo sapiens, HEL): 158 nM | IC50 ([14]; Homo sapiens, HOP-62): > 0.2 µM | IC50 ([15]; Homo sapiens, HT-144): > 0.2 µM | IC50 ([16]; Homo sapiens, IA-LM): > 0.2 µM | IC50 ([17]; Homo sapiens, IST-MEL1): 0.123 µM | IC50 ([18]; Homo sapiens, KNS-81-FD): 0.138 µM | IC50 ([19]; Homo sapiens, L-363): 0.000242 µM | IC50 ([20]; Homo sapiens, LU-139): 0.0533 µM | IC50 ([21]; Homo sapiens, MS-1): > 0.2 µM | IC50 ([22]; Homo sapiens, MSTO-211H): 0.0601 µM | IC50 ([23]; Homo sapiens, NB12): > 0.2 µM | IC50 ([24]; Homo sapiens, NB5): 0.111 µM | IC50 ([25]; Homo sapiens, NB6): > 0.2 µM | IC50 ([26]; Homo sapiens, NB69): 0.00946 µM | IC50 ([27]; Homo sapiens, NCI-H1092): > 0.2 µM | IC50 ([28]; Homo sapiens, NCI-H1304): > 0.2 µM | IC50 ([29]; Homo sapiens, NCI-H209): 153 nM | IC50 ([30]; Homo sapiens, NCI-H526): 61.6 nM | IC50 ([31]; Homo sapiens, NCI-H69): > 0.2 µM | IC50 ([32]; Homo sapiens, NCI-H747): > 0.2 µM | IC50 ([33]; Homo sapiens, SNU-5): > 0.2 µM | IC50 ([34]; Homo sapiens, NTERA-2-cl-D1): 20.7 nM | IC50 ([35]; Homo sapiens, OCUB-M): > 0.2 µM | IC50 ([36]; Homo sapiens, SCC-15): 0.128 µM | IC50 ([37]; Homo sapiens, SK-N-DZ): > 0.2 µM | IC50 ([38]; Homo sapiens, SK-N-FI): > 0.2 µM | IC50 ([39]; Homo sapiens, SK-UT-1): 0.0641 µM | IC50 ([40]; Homo sapiens, SW 962): 0.0156 µM | IC50 ([41]; Homo sapiens, A3-KAW): 0.0104 µM | IC50 ([42]; Homo sapiens, AM-38): > 0.2 µM | IC50 ([43]; Homo sapiens, ATN-1): > 0.2 µM | IC50 ([44]; Homo sapiens, C8166): > 0.2 µM | IC50 ([45]; Homo sapiens, TGBC1TKB): 0.137 µM | IC50 ([46]; Homo sapiens, UACC-257): > 0.2 µM | IC50 ([47]; Homo sapiens, VA-ES-BJ): 5.9 nM

CS(=O)(=O)c1ccc(C(=O)Nc2ccc(Cl)c(-c3ccccn3)c2)c(Cl)c1 [VISMODEGIB]
IC50 ([2]; Homo sapiens, CP66-MEL): > 10 µM | IC50 ([3]; Homo sapiens, CTV-1): > 10 µM | IC50 ([4]; Homo sapiens, D-247MG): > 10 µM | IC50 ([5]; Homo sapiens, DMS-79): > 10 µM | IC50 ([6]; Homo sapiens, DOHH-2): > 10 µM | IC50 ([7]; Homo sapiens, EKVX): > 10 µM | IC50 ([8]; Homo sapiens, ES1): > 10000 nM | IC50 [9]: > 10 µM | IC50 ([10]; Homo sapiens, GB-1): > 10000 nM | IC50 ([11]; Homo sapiens, HCC1187): > 10 µM | IC50 ([12]; Homo sapiens, HD-MY-Z): > 10 µM | IC50 ([13]; Homo sapiens, HEL): > 10000 nM | IC50 ([14]; Homo sapiens, HOP-62): > 10 µM | IC50 ([15]; Homo sapiens, HT-144): > 10 µM | IC50 ([16]; Homo sapiens, IA-LM): > 10 µM | IC50 ([17]; Homo sapiens, IST-MEL1): > 10 µM | IC50 ([18]; Homo sapiens, KNS-81-FD): > 10 µM | IC50 ([19]; Homo sapiens, L-363): > 10 µM | IC50 ([20]; Homo sapiens, LU-139): > 10 µM | IC50 ([21]; Homo sapiens, MS-1): > 10 µM | IC50 ([22]; Homo sapiens, MSTO-211H): > 10 µM | IC50 ([23]; Homo sapiens, NB12): > 10 µM | IC50 ([24]; Homo sapiens, NB5): > 10 µM | IC50 ([25]; Homo sapiens, NB6): > 10 µM | IC50 ([26]; Homo sapiens, NB69): > 10 µM | IC50 ([27]; Homo sapiens, NCI-H1092): > 10 µM | IC50 ([28]; Homo sapiens, NCI-H1304): > 10 µM | IC50 ([29]; Homo sapiens, NCI-H209): > 10000 nM | IC50 ([30]; Homo sapiens, NCI-H526): > 10000 nM | IC50 ([32]; Homo sapiens, NCI-H747): > 10 µM | IC50 ([33]; Homo sapiens, SNU-5): > 10 µM | IC50 ([34]; Homo sapiens, NTERA-2-cl-D1): > 10000 nM | IC50 ([35]; Homo sapiens, OCUB-M): > 10 µM | IC50 ([36]; Homo sapiens, SCC-15): > 10 µM | IC50 ([37]; Homo sapiens, SK-N-DZ): > 10 µM | IC50 ([38]; Homo sapiens, SK-N-FI): > 10 µM | IC50 ([39]; Homo sapiens, SK-UT-1): > 10 µM | IC50 ([40]; Homo sapiens, SW 962): > 10 µM | IC50 ([41]; Homo sapiens, A3-KAW): > 10 µM | IC50 ([42]; Homo sapiens, AM-38): > 10 µM | IC50 ([43]; Homo sapiens, ATN-1): > 10 µM | IC50 ([44]; Homo sapiens, C8166): > 10 µM | IC50 ([45]; Homo sapiens, TGBC1TKB): > 10 µM | IC50 ([46]; Homo sapiens, UACC-257): > 10 µM | IC50 ([47]; Homo sapiens, VA-ES-BJ): > 10000 nM

CISPLATIN
IC50 ([1]; cor-l88): 319 µM | IC50 ([2]; cp66-mel): 32 µM | IC50 ([3]; ctv-1): 34 µM | IC50 ([4]; d-247mg): 10.8 µM | IC50 ([5]; dms-79): 24.4 µM | IC50 ([6]; dohh-2): 4.23 µM | IC50 ([7]; ekvx): 485 µM | IC50 ([8]; es1): 1020 nM | IC50 ([10]; gb-1): 1900 nM | IC50 ([11]; hcc1187): 117 µM | IC50 ([12]; hd-my-z): 18 µM | IC50 ([13]; hel): 1390 nM | IC50 ([14]; hop-62): 659 µM | IC50 ([15]; ht-144): 3.58 µM | IC50 ([16]; ia-lm): 23.1 µM | IC50 ([17]; ist-mel1): 9.38 µM | IC50 ([18]; kns-81-fd): 535 µM | IC50 ([19]; l-363): 4.01 µM | IC50 ([20]; lu-139): 95.6 µM | IC50 ([21]; ms-1): 14.1 µM | IC50 ([22]; msto-211h): 57.1 µM | IC50 ([23]; nb12): 166 µM | IC50 ([24]; nb5): 5.48 µM | IC50 ([25]; nb6): 318 µM | IC50 ([26]; nb69): 52.1 µM | IC50 ([27]; nci-h1092): 15.4 µM | IC50 ([28]; nci-h1304): 9.85 µM | IC50 ([29]; nci-h209): 537 nM | IC50 ([30]; nci-h526): 2060 nM | IC50 ([31]; nci-h69): 231 µM | IC50 ([32]; nci-h747): 16.9 µM | IC50 ([33]; snu-5): 141 µM | IC50 ([34]; ntera-2-cl-d1): 848 nM | IC50 ([35]; ocub-m): 22.7 µM | IC50 ([36]; scc-15): 28.9 µM | IC50 ([37]; sk-n-dz): 26.8 µM | IC50 ([38]; sk-n-fi): 313 µM | IC50 ([39]; sk-ut-1): 12.9 µM | IC50 ([40]; sw 962): 64.6 µM | IC50 ([41]; a3-kaw): 164 µM | IC50 ([42]; am-38): 225 µM | IC50 ([43]; atn-1): 18.6 µM | IC50 ([44]; c8166): 208 µM | IC50 ([45]; tgbc1tkb): 82.6 µM | IC50 ([46]; uacc-257): 108 µM | IC50 ([47]; va-es-bj): 2450 nM
